{
  "source": "patent US9187435B2",
  "about": "“Bridged Spiro[2.4]heptane ester derivatives” (Actelion Pharmaceuticals Ltd., priority 2010, dated 2015)",
  "note": "Counter-ions that a name gives are not always drawn.",
  "data": [
    {"molecular_target": "T1, human ALX receptor (Homo sapiens, UniProt P25090)", "T1 construct": "expressed in transfected cells; host or cells: HEK293 (HEK293-hALXR-Gα16)", "T1 sequence (P25090 1-351)": "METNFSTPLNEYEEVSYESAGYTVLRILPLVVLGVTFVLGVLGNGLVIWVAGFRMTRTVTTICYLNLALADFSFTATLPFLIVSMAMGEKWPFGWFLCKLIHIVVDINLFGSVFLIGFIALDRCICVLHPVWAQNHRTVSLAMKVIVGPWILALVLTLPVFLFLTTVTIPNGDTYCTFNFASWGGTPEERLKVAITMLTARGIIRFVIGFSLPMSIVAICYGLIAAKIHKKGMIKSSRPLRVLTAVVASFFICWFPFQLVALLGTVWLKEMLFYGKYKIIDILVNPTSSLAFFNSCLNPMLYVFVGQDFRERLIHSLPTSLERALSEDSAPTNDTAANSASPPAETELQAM", "assay": "Intracellular calcium measurements (FLIPR) in HEK293-hALXR-Gα16 cells, agonistic activity", "type": "cell-based", "conditions": "values normalized to WKYMVm 10 nM", "experimental": "The ALX receptor and FPRL2 agonistic activities of the compounds of formula (I) are determined in accordance with the following experimental method.\nIntracellular Calcium Measurements:\nCells expressing recombinant human ALX receptor and the G-protein Gα16 (HEK293-hALXR-Gα16) were grown to 80% confluency in Growing Medium (GM). Cells were detached from culture dishes with a cell dissociation buffer (Invitrogen, 13151-014), and collected by centrifugation at 1,000 rpm at rt for 5 min in Assay Buffer (AB) (equal parts of Hank's BSS (Gibco, 14065-049) and DMEM without Phenol Red (Gibco, 11880-028)). After 60 min incubation at 37° C. under 5% CO2 in AB supplemented with 1 μM Fluo-4 (AM) (Invitrogen, F14202), and 20 mM HEPES (Gibco, 15630-056), the cells were washed and resuspended in AB. They were then seeded onto 384-well FLIPR assay plates (Greiner, 781091) at 50,000 cells in 70 μl per well and sedimented by centrifugation at 1,000 rpm for 1 min. Stock solutions of test compounds were made up at a concentration of 10 mM in DMSO, and serially diluted in AB to concentrations required for activation dose response curves. WKYMVm (Phoenix Peptides) was used as a reference agonist. FLIPR384 or FLIPR Tetra instruments (Molecular Devices) were operated according to the manufacturer's standard instructions, adding 4 μl of test compound dissolved at 10 mM in DMSO and diluted prior to the experiment in assay buffer to obtain the desired final concentration. Changes in fluorescence were monitored before and after the addition of test compounds at lex=488 nm and lem=540 nm. Emission peak values above base level after compounds addition were exported after base line subtraction. Values were normalized to high-level control (WKYMVm compound, 10 nM final concentration) after subtraction of the base line value (AB addition).", "units": {"EC50": "nM"}, "values": [
      {"smiles": "O=C(OCCN1CCCC1=O)[C@H]1[C@H](C(=O)Nc2ccc(Br)nc2)[C@@H]2CC[C@H]1C21CC1", "note": "[Example 23, (1S,2R,3R,4R)-[2-(2-Oxopyrrolidin-1-yl)ethyl 2-((6-bromopyridin-3-yl)carbamoyl)spiro[bicyclo[2.2.1]heptane-7,1′-cyclopropane]-3-carboxylate]]", "EC50": 281},
      {"smiles": "O=C(OC1CNC1)[C@H]1[C@H](C(=O)Nc2ccc(Br)nc2)[C@@H]2CC[C@H]1C21CC1", "note": "[Example 24, (1S,2R,3R,4R)-[Azetidin-3-yl 2-((6-bromopyridin-3-yl)carbamoyl)spiro[bicyclo[2.2.1]heptane-7,1′-cyclopropane]-3-carboxylate]hydrochloride]", "EC50": 289},
      {"smiles": "Cc1cc(CNC(=O)[C@H]2[C@H](C(=O)OCCCN(C)C)[C@H]3CC[C@@H]2C32CC2)no1", "note": "[Example 25, (1S,2R,3R,4R)-[1-Dimethylaminoprop-3-yl 2-(((5-methylisoxazol-3-yl)methyl)carbamoyl)spiro[bicyclo[2.2.1]heptane-7,1′-cyclopropane]-3-carboxylate]]", "EC50": 330},
      {"smiles": "Cc1cc(CNC(=O)[C@H]2[C@H](C(=O)OCC3CCCCN3C)[C@H]3CC[C@@H]2C32CC2)no1", "note": "(stereo partly drawn) [Example 26, (1S,2R,3R,4R)-[1-Methyl-piperidin-2-ylmethyl 2-(((5-methylisoxazol-3-yl)methyl)carbamoyl)spiro[bicyclo[2.2.1]heptane-7,1′-cyclopropane]-3-carboxylate]]", "EC50": 406},
      {"smiles": "Cc1cc(CNC(=O)[C@H]2[C@H](C(=O)OCCN(C)C)[C@H]3CC[C@@H]2C32CC2)no1", "note": "[Example 27, (1S,2R,3R,4R)-[1-Dimethylaminoeth-2-yl 2-(((5-methylisoxazol-3-yl)methyl)carbamoyl)spiro[bicyclo[2.2.1]heptane-7,1′-cyclopropane]-3-carboxylate]]", "EC50": 585},
      {"smiles": "Cc1cc(CNC(=O)[C@H]2[C@H](C(=O)OCC(C)C)[C@H]3CC[C@@H]2C32CC2)no1", "note": "[Example 28, (1S,2R,3R,4R)-[Isobutyl 2-(((5-methylisoxazol-3-yl)methyl)carbamoyl)spiro[bicyclo[2.2.1]heptane-7,1′-cyclopropane]-3-carboxylate]]", "EC50": 734},
      {"smiles": "Cc1cc(CNC(=O)[C@H]2[C@H](C(=O)OC3CCCC3)[C@H]3CC[C@@H]2C32CC2)no1", "note": "[Example 29, (1S,2R,3R,4R)-[Cyclopentyl 2-(((5-methylisoxazol-3-yl)methyl)carbamoyl)spiro[bicyclo[2.2.1]heptane-7,1′-cyclopropane]-3-carboxylate]]", "EC50": 790},
      {"smiles": "CCCOC(=O)[C@H]1[C@H](C(=O)NCc2cc(C)on2)[C@@H]2CC[C@H]1C21CC1", "note": "[Example 30, (1S,2R,3R,4R)-[Propyl 2-(((5-methylisoxazol-3-yl)methyl)carbamoyl)spiro[bicyclo[2.2.1]heptane-7,1′-cyclopropane]-3-carboxylate]]", "EC50": 808},
      {"smiles": "O=C(OCCOCCN1CCCC1)[C@H]1[C@H](C(=O)Nc2ccc(Br)nc2)[C@@H]2CC[C@H]1C21CC1", "note": "[Example 31, (1S,2R,3R,4R)-[2-(2-(Pyrrolidin-1-yl)ethoxy)ethyl 2-((6-bromopyridin-3-yl)carbamoyl)spiro[bicyclo[2.2.1]heptane-7,1′-cyclopropane]-3-carboxylate]]", "EC50": 2.2},
      {"smiles": "O=C(OCCOCCN1CCCC1)[C@H]1[C@H](C(=O)NCc2ccc(Br)cc2F)[C@@H]2CC[C@H]1C21CC1", "note": "[Example 32, (1S,2R,3R,4R)-[2-(2-(Pyrrolidin-1-yl)ethoxy)ethyl 2-((4-bromo-2-fluorobenzyl)carbamoyl)spiro[bicyclo[2.2.1]heptane-7,1′-cyclopropane]-3-carboxylate]]", "EC50": 226},
      {"smiles": "Cc1cc(CNC(=O)[C@H]2[C@H](C(=O)OCCOCCN3CCCC3)[C@H]3CC[C@@H]2C32CC2)no1", "note": "[Example 33, (1S,2R,3R,4R)-[2-(2-(Pyrrolidin-1-yl)ethoxy)ethyl 2-(((5-methylisoxazol-3-yl)methyl)carbamoyl)spiro[bicyclo[2.2.1]heptane-7,1′-cyclopropane]-3-carboxylate]]", "EC50": 30.7},
      {"smiles": "Cc1cc(CNC(=O)[C@H]2[C@H](C(=O)OCCOCCN3CC[C@H](F)C3)[C@H]3CC[C@@H]2C32CC2)no1", "note": "[Example 34, (1S,2R,3R,4R)-[(S)-2-(2-(3-Fluoropyrrolidin-1-yl)ethoxy)ethyl 2-(((5-methylisoxazol-3-yl)methyl)carbamoyl)spiro[bicyclo[2.2.1]heptane-7,1′-cyclopropane]-3-carboxylate]]", "EC50": 21.6},
      {"smiles": "O=C(Nc1ccc(Br)cc1)C1C(C(=O)OCC2CCNCC2)C2C=CC1C21CC1", "note": "[Example 35, (1R,4S,5R,6R)-[Piperidin-4-ylmethyl 5-((4-bromophenyl)carbamoyl)spiro[bicyclo[2.2.1]hept[2]ene-7,1′-cyclopropane]-6-carboxylate]]", "EC50": 2.9},
      {"smiles": "O=C(OCCC1CCNCC1)[C@H]1[C@H](C(=O)Nc2ccc(Br)nc2)[C@@H]2CC[C@H]1C21CC1", "note": "[Example 36, (1S,2R,3R,4R)-[2-(Piperidin-4-yl)ethyl 2-((6-bromopyridin-3-yl)carbamoyl)spiro[bicyclo[2.2.1]heptane-7,1′-cyclopropane]-3-carboxylate]hydrochloride]", "EC50": 0.4},
      {"smiles": "O=C(OCCN1CCNCC1)[C@H]1[C@H](C(=O)Nc2ccc(Br)nc2)[C@@H]2CC[C@H]1C21CC1", "note": "[Example 37, (1S,2R,3R,4R)-[2-(piperazin-1-yl)ethyl 2-((6-bromopyridin-3-yl)carbamoyl)spiro[bicyclo[2.2.1]heptane-7,1′-cyclopropane]-3-carboxylate]dihydrochloride]", "EC50": 1.4},
      {"smiles": "O=C(OCCC1(F)CCNCC1)[C@H]1[C@H](C(=O)Nc2ccc(Br)nc2)[C@@H]2CC[C@H]1C21CC1", "note": "[Example 40, (1S,2R,3R,4R)-[2-(4-Fluoro-piperidin-4-yl)ethyl 2-((6-bromopyridin-3-yl)carbamoyl)spiro[bicyclo[2.2.1]heptane-7,1′-cyclopropane]-3-carboxylate]]", "EC50": 4.6},
      {"smiles": "O=C(OCC1CCNCC1)[C@H]1[C@H](C(=O)Nc2ccc(Br)nc2)[C@@H]2CC[C@H]1C21CC1", "note": "[Example 41, (1S,2R,3R,4R)-[(Piperidin-4-yl)methyl 2-((6-bromopyridin-3-yl)carbamoyl)spiro[bicyclo[2.2.1]heptane-7,1′-cyclopropane]-3-carboxylate]hydrochloride]", "EC50": 5.2},
      {"smiles": "Cc1cc(CNC(=O)[C@H]2[C@H](C(=O)OCCOCCN3CC[C@H](F)C3)[C@H]3CC[C@@H]2C32CC2)on1", "note": "[Example 42, (1S,2R,3R,4R)-[(S)-2-(2-(3-Fluoropyrrolidin-1-yl)ethoxy)ethyl 2-(((3-methylisoxazol-5-yl)methyl)carbamoyl)spiro[bicyclo[2.2.1]heptane-7,1′-cyclopropane]-3-carboxylate]]", "EC50": 7.2},
      {"smiles": "NCc1cccc(COC(=O)[C@H]2[C@H](C(=O)Nc3ccc(Br)nc3)[C@@H]3CC[C@H]2C32CC2)c1", "note": "[Example 45, (1S,2R,3R,4R)-[3-(Aminomethyl)benzyl 2-((6-bromopyridin-3-yl)carbamoyl)spiro[bicyclo[2.2.1]heptane-7,1′-cyclopropane]-3-carboxylate]]", "EC50": 9.3},
      {"smiles": "Cc1cc(CNC(=O)[C@H]2[C@H](C(=O)OCCC3CCNCC3)[C@H]3CC[C@@H]2C32CC2)no1", "note": "[Example 47, (1S,2R,3R,4R)-[2-(Piperidin-4-yl)ethyl 2-(((5-methylisoxazol-3-yl)methyl)carbamoyl)spiro[bicyclo[2.2.1]heptane-7,1′-cyclopropane]-3-carboxylate]]", "EC50": 9.7}
    ]}
  ]
}
